Each structure is given as a SMILES string.

One assay has as its target T1, PTP1B (Homo sapiens, UniProt P18031).
T1 construct: encodes for PTP1B (residues 1–321); inferred from the pET28A vector, NdeI/BamHI cloning and Ni-agarose purification) (N); made in house; host or cells: E. coli BLR
T1 sequence (P18031 1-321): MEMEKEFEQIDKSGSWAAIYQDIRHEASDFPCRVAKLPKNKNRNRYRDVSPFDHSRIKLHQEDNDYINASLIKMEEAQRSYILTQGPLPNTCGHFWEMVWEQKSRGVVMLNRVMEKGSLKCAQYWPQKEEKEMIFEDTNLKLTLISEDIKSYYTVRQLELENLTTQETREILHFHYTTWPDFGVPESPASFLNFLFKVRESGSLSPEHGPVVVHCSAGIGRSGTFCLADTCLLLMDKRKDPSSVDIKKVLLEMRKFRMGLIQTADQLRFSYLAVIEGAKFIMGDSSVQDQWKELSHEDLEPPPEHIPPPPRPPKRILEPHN
Nature of the assay: PTP1B enzymatic inhibition assay (pNPP substrate). The conditions noted are these: Table S1, 200 µM compound. Format: biochemical. The method, then:
The PTP1B activity was measured based on the Goldstein method. The assay was performed with a final reaction volume of 500 µL in HEPES buffer (50 mM HEPES, 1mM DTT, 2 mM EDTA and 150 mM NaCl, pH 7.0), DMSO (10%) and p-nitrophenol phosphate (pNPP) as substrate (50 mM), the reaction was started with the PTP1B (1.5 µg/mL). After 30 min of incubation at 37 °C, the reaction was stopped by the addition of 500 µL of NaOH 5N reading the absorbance at 405 nm. The number of hydrolyzed moles of pNPP was determined using the molar extinction coefficient of the product pNP (18,500 M^−1 cm^−1).
Inhibition assays were performed under the above described conditions, adding to the reaction each one of the molecules at a final concentration of 200 µM. The concentration that inhibits 50% (IC50) of the PTP1B activity was determined through curves at different concentration of each compound, adjusting the data to the equation reported elsewhere. The inhibition type and constant were obtained by the measurement of the initial velocities of hydrolysis varying the substrate concentration in a range of 2–30 µM, in absence or presence of fixed concentrations of each inhibitor. For compound 1 the concentrations used were 3, 6, 10 and 20 µM; in the case of compound 2 were 2, 4, 6, 8, and 10 µM; and for compound 3 were 20, 50, 70 and 90 µM. The experimental data were analyzed through the Lineweaver-Burk plot using the software Sigma Plot V12.3 (Systat Software, Inc., San Jose, CA, USA).
For the compound `CSc1nc2cc(C(=O)O)ccc2n1C` [1-methyl-2-(methylsulfanyl)-1H-benzimidazole-5-carboxylic acid], the “% Inhibition (200 µM)” value was 33%.
As for `CSc1nc2cc(C(=O)N/N=C/c3ccc([N+](=O)[O-])o3)ccc2n1C` [1-methyl-2-(methylsulfanyl)-N'-[(E)-(5-nitrofuran-2-yl)methylidene]-1H-benzimidazole-5-carbohydrazide], the “% Inhibition (200 µM)” value amounted to 34%.
As to `O=C(CSc1nnc(-c2cc(OCC(F)(F)F)ccc2OCC(F)(F)F)o1)c1ccccc1` [2-({5-[2,5-di(2,2,2-trifluoroethoxy)phenyl]-1,3,4-oxadiazol-2-yl}thio)-1-phenylethan-1-one], the “% Inhibition (200 µM)” value amounted to 64%.
As for `Cn1c(SCC(=O)Nc2nccs2)nc2cc(Oc3cccc4ccccc34)c(Cl)cc21` [2-({6-chloro-1-methyl-5-[(naphthalen-1-yl)oxy]-1H-benzimidazol-2-yl}sulfanyl)-N-(1,3-thiazol-2-yl)acetamide], the “% Inhibition (200 µM)” value is 54%.
Take `O=C(CSc1nc2cc(Oc3cccc4ccccc34)c(Cl)cc2[nH]1)Nc1ncc([N+](=O)[O-])s1` [2-({6-chloro-5-[(naphthalen-1-yl)oxy]-1H-benzimidazol-2-yl}sulfanyl)-N-(5-nitro-1,3-thiazol-2-yl)acetamide]: the “% Inhibition (200 µM)” value is given as 63%.
In the case of `O=C(O)c1csc(-c2ccc(C(F)(F)F)cc2)n1` [2-[4-(trifluoromethyl)phenyl]-1,3-thiazole-4-carboxylic acid], the “% Inhibition (200 µM)” value turned out to be 34%.
As to `N#Cc1ccc(-c2c(NC(=O)NS(=O)(=O)c3ccccc3Cl)oc(-c3ccco3)c2C#N)cc1` [2-[({[(2-chlorophenyl)sulphonyl]amino}carbonyl)amino]-4-cyano-3-(4-cyanophenyl)-5-(2-furyl)furan], the “% Inhibition (200 µM)” value is given as 64%.
With `O=C(O)c1ccccc1N1CCOCC1` [2-morpholinobenzoic acid], the inhibition at 200 µM amounted to 37%.
For the compound `O=C(Nc1ccc(COc2ccccc2)cc1)Oc1ccccc1N1CCOCC1` [2-morpholinophenyl N-[4-(phenoxymethyl)phenyl]carbamate], the “% Inhibition (200 µM)” value is reported as 63%.
The same measure, in the same setting: the result for `CC1C(=NO)CC(c2ccc([N+](=O)[O-])cc2)NC1c1ccc([N+](=O)[O-])cc1` (stereo not shown) [3-methyl-2,6-bis(4-nitrophenyl)tetrahydropyridin-4(1H)-one oxime] reads 54%.
For the compound `Cc1ccc(S(=O)(=O)CCSc2n[nH]c(=O)n2-c2ccc(OCc3ccccc3)cc2)cc1` [4-[4-(benzyloxy)phenyl]-5-({2-[(4-methylphenyl)sulfonyl]ethyl}sulfanyl)-2,4-dihydro-3H-1,2,4-triazol-3-one], the “% Inhibition (200 µM)” value was determined as 42%.
For the compound `O=C(O)C=CC(=O)Nc1ccc(N2CCCCCC2)c(NC(=O)C=CC(=O)O)c1` [4-{2-(1-azepanyl)-5-[(4-hydroxy-4-oxo-2-butenoyl)amino]anilino}-4-oxo-2-butenoic acid], the “% Inhibition (200 µM)” value was found to be 58%.
For the compound `Cn1c(SCCn2ccnc2)nc2cc(Cl)ccc21` [5-chloro-2-{[2-(1H-imidazol-1-yl)ethyl]sulfanyl}-1-methyl-1H-benzimidazole], the “% Inhibition (200 µM)” value is 42%.

Staying with this assay, now noted: Table S1, values marked a: tested at 100 µM due to solubility problems.
On to `CSc1nc2cc(C(=O)N/N=C/c3ccc([N+](=O)[O-])o3)ccc2[nH]1` [2-(methylsulfanyl)-N'-[(E)-(5-nitrofuran-2-yl)methylidene]-1H-benzimidazole-5-carbohydrazide], for which the “% Inhibition” value was found to be 50%.
Consider `Cn1c(SCC(=O)Nc2nccs2)nc2cc(Cl)c(Oc3cccc4ccccc34)cc21` [2-({5-chloro-1-methyl-6-[(naphthalen-1-yl)oxy]-1H-benzimidazol-2-yl}sulfanyl)-N-(1,3-thiazol-2-yl)acetamide], for which the “% Inhibition” value is given as 63%.
For `Cc1nc2cc(C(=O)N/N=C/c3ccc([N+](=O)[O-])o3)ccc2[nH]1` [2-methyl-N'-[(E)-(5-nitrofuran-2-yl)methylidene]-1H-benzimidazole-5-carbohydrazide], the “% Inhibition” value is recorded as 54%.

In general, inhibition refers to the share of the control response that was lost under treatment. The % Inhibition is the percentage by which the read-out fell short of the control.

The values are drawn from paper PMC6150025, “Novel Mixed-Type Inhibitors of Protein Tyrosine Phosphatase 1B. Kinetic and Computational Studies” (Molecules : A Journal of Synthetic Chemistry and Natural …, 2017).
